Measured values reported in PMC4402584, “New Diterpenes from Cultures of the Fungus Engleromyces goetzii and Their CETP Inhibitory Activity” (Natural Products and Bioprospecting, 2015).

Target: T1, cholesterol ester transfer protein (CETP) (Oryctolagus cuniculus, UniProt P22687)
T1 sequence (P22687 2-497): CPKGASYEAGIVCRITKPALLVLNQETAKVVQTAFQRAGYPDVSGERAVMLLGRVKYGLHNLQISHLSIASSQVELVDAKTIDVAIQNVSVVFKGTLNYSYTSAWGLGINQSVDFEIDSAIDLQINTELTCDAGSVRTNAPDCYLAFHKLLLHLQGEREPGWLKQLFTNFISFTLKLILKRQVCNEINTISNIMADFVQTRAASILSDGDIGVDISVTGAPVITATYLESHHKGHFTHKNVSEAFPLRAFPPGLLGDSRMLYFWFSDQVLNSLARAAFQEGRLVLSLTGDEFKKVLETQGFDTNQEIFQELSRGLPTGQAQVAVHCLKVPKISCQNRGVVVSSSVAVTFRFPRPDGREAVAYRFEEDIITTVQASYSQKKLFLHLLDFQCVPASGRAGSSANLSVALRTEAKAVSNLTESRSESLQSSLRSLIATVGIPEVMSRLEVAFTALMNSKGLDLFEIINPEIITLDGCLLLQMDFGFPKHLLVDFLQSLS
Experiment: fluorescent neutral lipid transfer assay (BioVision CETP Inhibitor Screening Kit) with rabbit serum as CETP source
Format: biochemical

## C=C[C@@H]1C(=C)CC[C@H]2[C@H]1CC[C@@H]1[C@]2(C)C[C@@H](O)C[C@]1(C)C(=O)O [compound 1, engleromycenolic acid A]
  IC50: 7.55 µM
